# PMC5109658, “Antibacterial and cytotoxic cytochalasins from the endophytic fungus Phomopsis sp. harbored in Garcinia kola (Heckel) nut” (BMC Complementary and Alternative Medicine, 2016)
# Read-outs that look alike come from different tables or passages of the source.
# Columns and labels:
# V. cholerae CO6 = experiment: Broth microdilution MIC/MBC; format: cell-based, Vibrio cholerae; conditions: for MBC/MIC / MBC / MIC: V. cholerae CO6; for MBC / MIC: Vibrio cholerae; for MBC: 99.9% reduction in CFU after 24 h; for MIC: 24 h at 37 °C
# Description: (§1) A total of six bacterial strains were tested for their susceptibility to compounds and these strains were taken from our laboratory collection (kindly provided by Dr. T. Ramamurthy, NICED, Kolkata). Among the clinical strains of Vibrio cholerae used in this study, strains NB2 and SG24 and CO6 belonged to O1 and O139 serotypes, respectively. […]. The other strains used in this study were V. cholerae non-O1, non-O139 (strain PC2); […]. The American Type Culture Collection (ATCC) strain, Staphylococcus aureus ATCC 25923, was used for quality control. The bacterial strains were maintained on agar slant at 4 °C and subcultured on a fresh appropriate agar plates 24 h prior to any antibacterial test. The Mueller Hinton Agar (MHA) was used for the activation of bacteria. The Mueller Hinton Broth (MHB) and nutrient agar (Hi-Media) were used for the MIC and MBC determinations respectively.
# (§2) Suspensions of bacteria were prepared in MHB from cells arrested during their logarithmic phase growth (4 h) on MHB at 37 °C. The turbidity of the microbial suspension was read spectrophotometrically at 600 nm and adjusted to an OD of 0.1 with MHB, which is equivalent to 1 × 10^8 CFU/mL. From this prepared solution, other dilutions were made with MHB to yield 1x10^6 CFU/mL.
# (§3) MIC and MBC of compounds 1–3 were assessed using the broth microdilution method recommended by the National Committee for Clinical Laboratory Standards with slight modifications. Each test sample was dissolved in dimethylsulfoxide (DMSO) to give a stock solution. The 96-well round bottom sterile plates were prepared by dispensing 180 μL of the inoculated broth (1x10^6 CFU/mL) into each well. A 20 μL aliquot of the stock solution of compound was added. The concentrations of sample tested were 0.125, 0.25, 0.50, 1, 2, 4, 8, 16, 32, 64, 128, 256 and 512 μg/mL. […] Dilutions of tetracycline and ampicillin served as positive controls, while broth with 20 μL of DMSO was used as negative control. The ATCC strain Staphylococcus aureus ATCC 25923 was included for quality assurance purposes. Plates were covered and incubated for 24 h at 37 °C. After incubation, minimum inhibitory concentrations (MIC) were read visually; all wells were plated to nutrient agar (Hi-Media) and incubated. The minimal bactericidal concentration (MBC) was defined as a 99.9% reduction in CFU from the starting inoculums after 24 h incubation interval.
# V. cholerae NB2 = experiment: Broth microdilution MIC/MBC; format: cell-based, Vibrio cholerae; conditions: for MBC: 99.9% reduction in CFU after 24 h; for MIC: 24 h at 37 °C
# Description: as §1, §2, §3
# V. cholerae PC2 = experiment: Broth microdilution MIC/MBC; format: cell-based, Vibrio cholerae; conditions: V. cholerae PC2; for MBC: 99.9% reduction in CFU after 24 h; for MIC: 24 h at 37 °C
# Description: as §1, §2, §3
# V. cholerae SG24 = experiment: Broth microdilution MIC/MBC; format: cell-based, Vibrio cholerae; conditions: for MBC / MIC: Vibrio cholerae; for MBC: 99.9% reduction in CFU after 24 h; for MIC: 24 h at 37 °C
# Description: as §1, §2, §3
# S. flexneri SDINT = experiment: Broth microdilution MIC/MBC; format: cell-based, Shigella flexneri; conditions: for MBC: 99.9% reduction in CFU after 24 h; for MIC: 24 h at 37 °C
# Description: as §1, §2, §3
# S. aureus ATCC 25923 = experiment: Broth microdilution MIC/MBC; format: cell-based, Staphylococcus aureus; conditions: for MBC/MIC / MBC / MIC: S. aureus ATCC 25923; for MBC / MIC: Staphylococcus aureus, ATCC25923; for MBC: 99.9% reduction in CFU after 24 h; for MIC: 24 h at 37 °C
# Description: as §1, §2, §3
# MTT cytotoxicity assay [1] = format: cell-based, Human; conditions: human, HeLa cells; MTT, 24 h, mean ± SD; read-out: Cytotoxicty (LC50) HeLa cells
# Description: (§4) HeLa (Human cervical cancer cell line, ATCC No. CCL-2) and Vero cells (African green monkey kidney cells, normal non-cancer cells, ATCC No. CCL-81), obtained from the American Type Culture Collection (ATCC) were used in this study. Cytotoxic activity was determined using the 3-(4,5-dimethylthiazol-2-yl)-2,5-diphenyltetrazolium bromide (MTT, Sigma, USA) assay reported by Mosmann for the HeLa and Vero cells. This cell viability assay is based on living cell‘s property to transform the MTT dye tetrazolium ring into a purple-colored formazan structure due to the action of mitochondrial and other dehydrogenases inside the cell. The color intensity yielded by the cell population is directly proportional to the number of viable cells, and one can quantify the absorbance measurements using mathematical parameters. Each test sample was dissolved in dimethylsulfoxide (DMSO) to give a stock solution. Compounds 1–3 were prepared from the stock solutions by serial dilution in RPMI 1640 to give a volume of 100 μL in each well of a microtiter plate (96-well). Each well was filled with 100 μL of cells at 2 × 10^5 cells/mL. The assay for each concentration of compound was performed in triplicates and the culture plates were kept at 37 °C with 5% (v/v) CO2 for 24 h. After removing the supernatant of each well and washing twice by PBS, 20 μL of MTT solution (5 mg/mL in PBS) and 100 μL of medium were then introduced. After 4 h of incubation, 100 μL of DMSO were added to each well to dissolve the formazan crystals and the absorbance values at 490 nm were measured with a microplate reader (Bio-RAD 680, USA). The relative cell viability (%) was expressed as a relative percentage of treated cells to the untreated control cells (TC/UC × 100). The rate of cell inhibition was calculated using the following formula: inhibition rate = [1- (ODtest/ODnegative control)] × 100%. The LC50 values were calculated as the concentration of test sample resulting in a 50% reduction of absorbance compared to untreated cells. Cells treated with 5-fluorouridine + RPMI 1640 served as positive control while cells left untreated + 1% (v/v) DMSO + RPMI 1640 were used as negative control.
# HeLa cells = experiment: MTT cytotoxicity assay; format: cell-based, Human; conditions: SI = LC50 on Vero cells / LC50 on HeLa cells
# Description: as §4
# MTT cytotoxicity assay [2] = format: cell-based; conditions: African green monkey, Vero cells, normal non-cancer cells, mean ± SD, read-out: Cytotoxicty (LC50) Vero cells
# Description: as §4
# Hemolytic assay = format: cell-based; conditions: male, 1% human red blood cell suspension, 512 μg/mL (highest concentration tested), 1% human red blood cells, PBS pH 7.4, 37 °C
# Description: Whole blood (10 mL) from a healthy person was collected into a conical tube containing heparin as an anticoagulant. Erythrocytes were harvested by centrifugation at room temperature for 10 min at 1,000 × g and were washed three times in PBS solution. The top layer (plasma) and the next, milky layer (buffy coat with a layer of platelets on top of it) were then carefully aspirated and discarded. The cell pellet was resuspended in 10 mL of PBS solution and mixed by gentle aspiration with a Pasteur pipette. This cell suspension was used immediately.
# For the normal human red blood cells, which were in suspension, the cytotoxicity was evaluated as previously described. Compounds 1–3, at concentrations ranging from 32 to 512 μg/mL, were incubated with an equal volume of 1% human red blood cells in phosphate buffered saline (10 mM PBS, pH 7.4) at 37 °C for 1 h. Tetracycline was tested simultaneously. Non-hemolytic and 100% hemolytic controls were the buffer alone and the buffer containing 1% Triton X-100, respectively. Cell lysis was monitored by measuring the release of hemoglobin at 595 nm with a spectrophotometer (Thermo Scientific, USA). Percent hemolysis was calculated as follows: [(A595 of sample treated with compound - A595 of sample treated with buffer)/(A595 of sample treated with Triton X-100 – A595 of sample treated with buffer)] x 100.
# [3] = tested on: studied microorganisms (six bacterial strains); experiment: Antibacterial spectrum over the six tested strains (broth microdilution); format: cell-based; conditions: out of 6 strains; concentrations up to 512 μg/mL
# Description: as §1, §3
# [4] = Vibrio cholerae, V. cholerae NB2
# [5] = Vibrio cholerae, V. cholerae NB2, read-out: MIC
# [6] = Shigella flexneri, S. flexneri SDINT
# [7] = Shigella flexneri, S. flexneri SDINT, read-out: MIC
smiles,measurement,setting,value
"C=C1[C@@H](C)C2[C@H](Cc3ccccc3)NC(=O)[C@]23[C@H](O)/C=C/[C@](C)(OC)C[C@@H](C)C/C=C/[C@@H]3[C@@H]1O (stereo partly shown) [Compound 1, 18-metoxycytochalasin J]",Selectivity Index V. cholerae CO6,V. cholerae CO6; SI = LC50 on Vero cells / MIC,0.18
same,MBC/MIC,V. cholerae CO6,1
same,MBC,V. cholerae CO6,512 µg/mL
same,MIC,V. cholerae CO6,512 µg/mL
same,Selectivity Index V. cholerae NB2,V. cholerae NB2; SI = LC50 on Vero cells / MIC,0.18
same,MBC/MIC,V. cholerae NB2; V. cholerae NB2,1
same,MBC,V. cholerae NB2; [4],512 µg/mL
same,MIC,V. cholerae NB2; [5],512 µg/mL
same,MBC,V. cholerae PC2; Vibrio cholerae,> 512 µg/mL
same,MIC,"V. cholerae PC2; Vibrio cholerae, read-out: MIC",> 512 µg/mL
same,MBC,V. cholerae SG24,> 512 µg/mL
same,MIC,V. cholerae SG24,> 512 µg/mL
same,MBC/MIC,S. flexneri SDINT; S. flexneri SDINT,1
same,Selectivity Index S. flexneri SDINT,S. flexneri SDINT; SI = LC50 on Vero cells / MIC,0.72
same,MBC,S. flexneri SDINT; [6],128 µg/mL
same,MIC,S. flexneri SDINT; [7],128 µg/mL
same,MBC/MIC,S. aureus ATCC 25923,1
same,Selectivity Index S. aureus ATCC 25923,S. aureus ATCC 25923; SI = LC50 on Vero cells / MIC,0.72
same,MBC,S. aureus ATCC 25923,128 µg/mL
same,MIC,S. aureus ATCC 25923,128 µg/mL
same,CC50 at 24 h,MTT cytotoxicity assay [1],8.18 ± 0.92 µg/mL
same,Selectivity Index HeLa cells,HeLa cells,11.37
same,CC50 at 24 h,MTT cytotoxicity assay [2],93 ± 2.54 µg/mL
same,"hemolysis at 1 h, 512 μg/mL",Hemolytic assay,< 10%
same,share of the studied microorganisms on which inhibitory effects were noted,[3],66.66%
"O=c1[nH]c(=O)n([C@@H]2O[C@H](CO)[C@@H](O)[C@H]2O)cc1F [Compound 5-FU, 5-Fluorouridine, reference compound]",CC50 at 24 h,MTT cytotoxicity assay [1],0.25 ± 0.05 µg/mL
same,Selectivity Index HeLa cells,HeLa cells,18.52
same,CC50 at 24 h,MTT cytotoxicity assay [2],4.63 ± 0.17 µg/mL
"CC1(C)S[C@@H]2[C@H](NC(=O)[C@H](N)c3ccccc3)C(=O)N2[C@H]1C(=O)O [Ampicillin, reference compound]",MBC/MIC,V. cholerae CO6,1
same,MBC,V. cholerae CO6,16 µg/mL
same,MIC,V. cholerae CO6,16 µg/mL
same,MIC,V. cholerae NB2; V. cholerae NB2,>512 µg/mL
same,MBC,V. cholerae NB2; [4],> 512 µg/mL
same,MIC,V. cholerae NB2; [5],> 512 µg/mL
same,MIC,V. cholerae PC2,>512 µg/mL
same,MBC,V. cholerae PC2; Vibrio cholerae,> 512 µg/mL
same,MIC,"V. cholerae PC2; Vibrio cholerae, read-out: MIC",> 512 µg/mL
same,MBC/MIC,V. cholerae SG24,1
same,MBC,V. cholerae SG24,16 µg/mL
same,MIC,V. cholerae SG24,16 µg/mL
same,MIC,S. flexneri SDINT; S. flexneri SDINT,>512 µg/mL
same,MBC,S. flexneri SDINT; [6],> 512 µg/mL
same,MIC,S. flexneri SDINT; [7],> 512 µg/mL
same,MBC/MIC,S. aureus ATCC 25923,1
same,MBC,S. aureus ATCC 25923,16 µg/mL
same,MIC,S. aureus ATCC 25923,16 µg/mL
